Measured values from PMC6465675, “Design, Synthesis, Antiviral Evaluation, and SAR Studies of New 1-(Phenylsulfonyl)-1H-Pyrazol−4-yl-Methylaniline Derivatives” (Frontiers in Chemistry, 2019).

Columns and labels:
BVDV [1] = system: BVDV
YFV [2] = system: YFV
in vitro [3] = details: Mesocricetus auratus (hamster)
in vitro [4] = details: Bos taurus (cattle)
in vitro [5] = details: Cercopithecus aethiops (monkey), Vero76 CC50
in vitro [6] = details: human
BVDV [7] = test: microbe, parasite or virus in culture; details: Bovine viral diarrhea virus isolates and strains, MDBK, read-out: BVDV EC50
YFV [8] = test: microbe, parasite or virus in culture; details: Yellow fever virus, BHK, read-out: YFV EC50
DENV-2 [9] = system: DENV-2
DENV-2 [10] = test: microbe, parasite or virus in culture; details: Dengue virus, DENV2, BHK, read-out: DENV-2 EC50
RSV [11] = system: RSV
RSV [12] = test: microbe, parasite or virus in culture; details: human respiratory syncytial virus, Vero 76, read-out: RSV EC50

SMILES | melting point [°C] | SI CC50/EC50 (BVDV) (BVDV [1]) | SI CC50/EC50 (YFV) (YFV [2]) | CC50 (in vitro [3]) [µM] | CC50 (in vitro [4]) [µM] | CC50 (in vitro [5]) [µM] | CC50 (in vitro [6]) [µM] | EC50 (BVDV [7]) [µM] | EC50 (YFV [8]) [µM] | SI CC50/EC50 (DENV-2) (DENV-2 [9]) | EC50 (DENV-2 [10]) [µM] | SI CC50/EC50 (RSV) (RSV [11]) | EC50 (RSV [12]) [µM]
COc1ccc(S(=O)(=O)n2cc(CNc3ccc(Cl)cc3)c(-c3ccc(Br)cc3)n2)cc1 [8b, 4-Chloro-N-[(3-(4-bromophenyl)-1-((4-methoxphenyl)sulfonyl)-1H-pyrazol-4-yl)methyl]aniline] | 153 to 154 | >5.0 | >4.6 | > 100 | > 100 | > 100 | > 100 | 20 ± 1.4 | 21.6 ± 0.8 |  |  |  | 
COc1ccc(S(=O)(=O)n2cc(CNc3ccc(Cl)cc3)c(-c3ccc(C)cc3)n2)cc1 [8j] | 157 to 158 |  |  | > 100 | > 100 | > 100 | > 100 |  |  |  |  |  | 
COc1ccc(S(=O)(=O)n2cc(CNc3ccc(Br)cc3)c(-c3ccc(Cl)cc3)n2)cc1 [8g, 4-Bromo-N-[(3-(4-chlorophenyl)-1-((4-methoxyphenyl)sulfonyl)-1H-pyrazol-4-yl)methyl]aniline] | 169 to 171 | >8.1 | >5.4 | > 100 | > 100 | > 100 | > 100 | 12.4 ± 0.8 | 18.6 ± 0.8 |  |  |  | 
Clc1ccc(-c2nn(-c3ccccc3)cc2CNc2ccc(Br)cc2)cc1 [1d] |  |  |  | > 100 |  |  |  |  |  | >9.1 | 11 ± 0.4 |  | 
O=S(=O)(c1ccccc1)n1cc(CNc2ccccc2)c(-c2ccc(Cl)cc2)n1 [7i, N-[(3-(4-Chlorophenyl)-1-(phenylsulfonyl)-1H-pyrazol-4-yl)methyl]aniline] | 117 to 118 |  | >13.9 | > 100 | > 100 | > 100 | > 100 |  | 7.2 ± 0.9 |  |  | >8.5 | 11.8 ± 2.5
COc1ccc(S(=O)(=O)n2cc(CNc3ccccc3)c(-c3ccc(Cl)cc3)n2)cc1 [8e] | 143 to 145 |  |  | > 100 | > 100 | > 100 | > 100 |  |  |  |  |  | 
Cc1ccc(-c2nn(S(=O)(=O)c3ccccc3)cc2CNc2ccc(Br)cc2)cc1 [7o, 4-Bromo-N-[(1-(phenylsulfonyl)-3-(p-tolyl)-1H-pyrazol-4-yl)methyl]aniline] | 110 |  | >27.0 | > 100 | > 100 | > 100 | > 100 |  | 3.7 ± 1.3 |  |  | >7.4 | 13.5 ± 0.5
COc1ccc(S(=O)(=O)n2cc(CNc3ccc(Br)cc3)c(-c3ccc(C)cc3)n2)cc1 [8k] | 151 to 153 | >5.1 |  | > 100 | > 100 | > 100 | > 100 | 19.5 ± 1.4 |  |  |  |  | 
COc1ccc(S(=O)(=O)n2cc(CNc3ccc(C)cc3)c(-c3ccc(Cl)cc3)n2)cc1 [8h, 4-Methyl-N-[(3-(4-chlorophenyl)-1-((4-methoxyphenyl)sulfonyl)-1H-pyrazol-4-yl)methyl]aniline] | 169 to 171 |  |  | > 100 | > 100 | > 100 | > 100 |  |  |  |  |  | 
Cc1ccc(-c2nn(S(=O)(=O)c3ccccc3)cc2CNc2ccccc2)cc1 [7m, N-[(1-(Phenylsulfonyl)-3-(p-tolyl)-1H-pyrazol-4-yl)methyl]aniline] | 128 to 129 |  | >8.7 | > 100 | > 100 | > 100 | > 100 |  | 11.5 ± 1 |  |  | >8.0 | 12.5 ± 2.1
Clc1ccc(NCc2cn(-c3ccccc3)nc2-c2ccccc2)cc1 [1h] |  |  |  | > 100 |  |  |  |  |  | >7.7 | 13 ± 5 |  | 
O=S(=O)(c1ccccc1)n1cc(CNc2ccccc2)c(-c2ccccc2)n1 [7a, N-[(3-Phenyl-1-(phenysulfonyl)-1H-pyrazol-4-yl)methyl]aniline] | 139 |  |  | > 100 | > 100 | > 100 | > 100 |  |  |  |  |  | 
Brc1ccc(-c2nn(-c3ccccc3)cc2CNc2ccccc2)cc1 [1b] |  |  |  | > 100 |  |  |  |  |  | >4.5 | 22 ± 6 |  | 
COc1ccc(S(=O)(=O)n2cc(CNc3ccc(C)cc3)c(-c3ccc(Br)cc3)n2)cc1 [8d, 4-Methyl-N-[(3-(4-bromophenyl)-1-((4-methoxphenyl)sulfonyl)-1H-pyrazol-4-yl)methyl]aniline] | 164 to 166 |  | >5.5 | > 100 | > 100 | 100 | > 100 |  | 18.3 ± 1.1 |  |  |  | 
Cc1ccc(-c2nn(S(=O)(=O)c3ccccc3)cc2CNc2ccc(Cl)cc2)cc1 [7n, 4-Chloro-N-[(1-(phenylsulfonyl)-3-(p-tolyl)-1H-pyrazol-4-yl)methyl]aniline] | 115 |  | >19.6 | > 100 | > 100 | > 100 | > 100 |  | 5.1 ± 0.6 |  |  | >7.7 | 13 ± 2.8
Cc1ccc(-c2nn(-c3ccccc3)cc2CNc2ccc(Cl)cc2)cc1 [1k] |  |  |  | > 100 |  |  |  |  |  | >8.3 | 12.1 ± 3 |  | 
COc1ccc(S(=O)(=O)n2cc(CNc3ccc(C)cc3)c(-c3ccc(C)cc3)n2)cc1 [8l, 4-Methyl-N-[(1-((4-methoxyphenyl)sulfonyl)-3-(p-tolyl)-1H-pyrazol-4-yl)methyl]aniline] | 145 to 146 |  |  | > 100 | > 100 | > 100 | > 100 |  |  |  |  |  | 
COc1ccc(S(=O)(=O)n2cc(CNc3ccccc3)c(-c3ccc(C)cc3)n2)cc1 [8i, N-[(1-((4-Methoxyphenyl)sulfonyl)-3-(p-tolyl)-1H-pyrazol-4-yl)methyl]aniline] | 154 to 155 |  |  | > 100 | > 100 | > 100 | > 100 |  |  |  |  |  | 
O=S(=O)(c1ccccc1)n1cc(CNc2ccc(Br)cc2)c(-c2ccc(Cl)cc2)n1 [7k, 4-Bromo-N-[(3-(4-chlorophenyl)-1-(phenylsulfonyl)-1H-pyrazol-4-yl)methyl]aniline] | 142 to 143 |  | >17.9 | > 100 | > 100 | > 100 | > 100 |  | 5.6 ± 0.6 |  |  | >7.2 | 13.8 ± 0.4
Cc1ccc(NCc2cn(S(=O)(=O)c3ccccc3)nc2-c2ccc(C)cc2)cc1 [7p, 4-Methyl-N-[(1-(phenysulfonyl)-3-(p-tolyl)-1H-pyrazol-4-yl)methyl]aniline] | 123 to 124 |  | >27.8 | > 100 | > 100 | > 100 | > 100 |  | 3.6 ± 0.5 |  |  | >8.3 | 12 ± 2
Cc1ccc(NCc2cn(S(=O)(=O)c3ccccc3)nc2-c2ccc(Cl)cc2)cc1 [7l, 4-Methyl-N-[(3-(4-chlorophenyl)-1-(phenylsulfonyl)-1H-pyrazol-4-yl)methyl]anyline] | 100 to 101 |  | >15.2 | > 100 | > 100 | > 100 | > 100 |  | 6.6 ± 0.6 |  |  | >4.2 | 24 ± 1
COc1ccc(S(=O)(=O)n2cc(CNc3ccccc3)c(-c3ccc(Br)cc3)n2)cc1 [8a] | 131 to 134 |  |  | > 100 | > 100 | > 100 | > 100 | 5.6 ± 0.8 |  |  |  |  | 
Cc1ccc(NCc2cn(-c3ccccc3)nc2-c2ccccc2)cc1 [1m] |  |  |  | > 100 |  |  |  |  |  | >8.9 | 11.2 ± 3.6 |  | 
COc1ccc(S(=O)(=O)n2cc(CNc3ccc(Br)cc3)c(-c3ccc(Br)cc3)n2)cc1 [8c, 4-Bromo-N-[(3-(4-bromophenyl)-1-((4-methoxphenyl)sulfonyl)-1H-pyrazol-4-yl)methyl]aniline] | 162 to 164 | >4.4 |  | > 100 | > 100 | > 100 | > 100 | 23 ± 3.5 | > 100 |  |  |  | 
Cc1ccc(NCc2cn(S(=O)(=O)c3ccccc3)nc2-c2ccccc2)cc1 [7d, 4-Methyl-N-[(3-phenyl-1-(phenylsulfonyl)-1H-pyrazol-4-yl)methyl]aniline] | 199 |  |  | > 100 | > 100 | ≥ 100 | > 100 |  |  |  |  |  | 
O=C1Nc2ccc(Cl)cc2[C@@](C#CC2CC2)(C(F)(F)F)O1 [EFV, Efavirenz, reference compound] |  |  |  |  |  |  | 40 ± 2.5 |  |  |  |  |  | 
Cc1ccc(-c2nn(-c3ccccc3)cc2CNc2ccccc2)cc1 [1a] |  |  |  | > 100 |  |  |  |  |  | >3.3 | 30 ± 4 |  | 
Brc1ccc(NCc2cn(-c3ccccc3)nc2-c2ccccc2)cc1 [1c] |  |  |  | > 100 |  |  |  |  |  |  |  |  | 
Clc1ccc(NCc2cn(-c3ccccc3)nc2-c2ccc(Br)cc2)cc1 [1l] |  |  |  | > 100 |  |  |  |  |  | >7.8 | 12.9 ± 2.3 |  | 
